Reference: patent US10156556B2, “Method for determining ecological risks of polycyclic aromatic hydrocarbon in water body” (priority 2013, dated 2018)

What was measured:
[1] = relative to benzoapyrene; Nisbet and Lagoy 1992; cited from earlier work
[2] = tested on: Daphnia magna; settings: chronic toxicity data, PAN Pesticide Database and EPA EcoTox Database; cited from earlier work
[3] = tested on: Barbel fish; settings: chronic toxicity data, PAN Pesticide Database and EPA EcoTox Database; cited from earlier work
[4] = tested on: 95% of species in the protected water ecological system; assay: Calculation of HC5 from log-transformed NOEC data; settings: HC5=exp(Xm-KLSm), six species, KL 1.81
From the text: (3) calculating benzoapyrene concentration values HC5 of 95% of species in the protected water ecological system: i.e., performing logarithmic transformation on the toxicity data and applying a formula HC5=exp(Xm−KLSm)′ to calculate, wherein m is the number of species, Xm means the arithmetic mean value of the toxicity data of the m species after the logarithmic transformation; Sm means the standard deviation of the toxicity data of the m species after the logarithmic transformation; and KL is a regulation factor, obtained from literature;
(3) Calculating the benzoapyrene concentration values HC5 of 95% of species in the protected water ecological system: logarithmic transformation is performed on the toxicity data in Table 1 to obtain that the arithmetic mean value Xm 3.77 ug/L and the standard deviation Sm 4.95 ug/L, and calculation is conducted using a formula HC5=exp(Xm−KLSm)i, wherein the regulation factor KL is 1.81 (from published literature: Aldenberg and Slob, Confidence limits for hazardous concentrations based on logistically distributed NOEC toxicity data, 1991), and the HC5 value is obtained as 0.0056 ug/L.

[5] = tested on: Chironomidae; settings: chronic toxicity data, PAN Pesticide Database and EPA EcoTox Database; cited from earlier work
[6] = tested on: Frog; settings: chronic toxicity data, PAN Pesticide Database and EPA EcoTox Database; cited from earlier work
[7] = tested on: Green algae; settings: chronic toxicity data, PAN Pesticide Database and EPA EcoTox Database; cited from earlier work
[8] = tested on: Mussel; settings: chronic toxicity data, PAN Pesticide Database and EPA EcoTox Database; cited from earlier work
[9] = tested on: water ecological system of the lake; assay: Ecological risk quotient, Monte Carlo sampling (10,000 times); settings: single pollutant, water body of the lake
From the text: (5) calculating ecological risk quotient values RQi of specific polycyclic aromatic hydrocarbon pollutants: calculating according to a formula
[formula] wherein ECi is the environmental concentration of an i^th polycyclic aromatic hydrocarbon pollutant, TEFi is a toxic equivalency factor of the i^th polycyclic aromatic hydrocarbon pollutant relative to the benzoapyrene, and a concrete numerical value is from literature, and HC5 is the benzoapyrene concentration values of 95% of species in the protected water ecological system; conducting random sampling for 10,000 times using a Monte Carlo sampling method according to the concentration distribution characteristics of different polycyclic aromatic hydrocarbons; and drawing cumulative probability distribution curves of the ecological risk quotient values of each polycyclic aromatic hydrocarbon pollutant according to the Monte Carlo sampling result, and analyzing the probability that the risk quotient values thereof RQi are no less than one; and
(6) calculating the total ecological risk quotient value RQt of each polycyclic aromatic hydrocarbon pollutant: calculating according to a formula […]

SMILES: c1cc2c3c(cccc3c1)CC2 [Ace]
- Toxic equivalency factor [1]: 0.001

SMILES: C1=Cc2cccc3cccc1c23 [Acy]
- Toxic equivalency factor [1]: 0.001

SMILES: c1ccc2cc3ccccc3cc2c1 [Ant, anthracene]
- Toxic equivalency factor [1]: 0.01

SMILES: c1ccc2c(c1)cc1ccc3cccc4ccc2c1c34 [B[a]P, benzoapyrene]
- NOEC [2]: 0.02 µg/L
- NOEC [3]: 54.2 µg/L
- HC5 (concentration value of 95% of species in the protected water ecological system) [4]: 0.0056 ug/L
- NOEC [5]: 5 µg/L
- NOEC [6]: 10 µg/L
- NOEC [7]: 250000 µg/L
- NOEC [8]: 500 µg/L
- probability of the risk quotient value RQi greater than or equal to one [9]: 54.4%
- Toxic equivalency factor [1]: 1

SMILES: c1ccc2c(c1)-c1cccc3c1c-2cc1ccccc13 [B[b]F]
- Toxic equivalency factor [1]: 0.1

SMILES: c1cc2ccc3ccc4ccc5cccc6c(c1)c2c3c4c56 [B[ghi]P]
- Toxic equivalency factor [1]: 0.01

SMILES: c1ccc2cc3c(cc2c1)-c1cccc2cccc-3c12 [B[k]F]
- Toxic equivalency factor [1]: 0.1

SMILES: c1ccc2c(c1)ccc1c3ccccc3ccc21 [Chr]
- Toxic equivalency factor [1]: 0.01

SMILES: c1ccc2c(c1)ccc1cc3c(ccc4ccccc43)cc12 [DBA]
- probability of the risk quotient value RQi greater than or equal to one [9]: 61.8%
- Toxic equivalency factor [1]: 1

SMILES: c1ccc2c(c1)-c1ccc3ccc4cccc5cc-2c1c3c45 [Ind]
- Toxic equivalency factor [1]: 0.1

SMILES: c1ccc2ccccc2c1 [Nap]
- Toxic equivalency factor [1]: 0.001
